Experimental data published in publication PMC8300687, “A Fine-Tuned Lipophilicity/Hydrophilicity Ratio Governs Antibacterial Potency and Selectivity of Bifurcated Halogen Bond-Forming NBTIs” (Antibiotics, 2021).
Values after ≈ are worked out from the molar mass of the structure shown. Where two headings read alike, the source gives them in different places.

Key:
S. aureus DNA gyrase = target: T1, S. aureus DNA gyrase (Staphylococcus aureus, UniProt P20831); assay: biochemical; format: biochemical; details: for IC50: fluorescence plate supercoiling assay, mean of two to four measurements; for LE DNA Gyrase S. aureus: LE = (1.37/HA) × pIC50
T1 construct: purchased Inspiralis (Norwich, UK)
T1 sequence (P20831 whole entry): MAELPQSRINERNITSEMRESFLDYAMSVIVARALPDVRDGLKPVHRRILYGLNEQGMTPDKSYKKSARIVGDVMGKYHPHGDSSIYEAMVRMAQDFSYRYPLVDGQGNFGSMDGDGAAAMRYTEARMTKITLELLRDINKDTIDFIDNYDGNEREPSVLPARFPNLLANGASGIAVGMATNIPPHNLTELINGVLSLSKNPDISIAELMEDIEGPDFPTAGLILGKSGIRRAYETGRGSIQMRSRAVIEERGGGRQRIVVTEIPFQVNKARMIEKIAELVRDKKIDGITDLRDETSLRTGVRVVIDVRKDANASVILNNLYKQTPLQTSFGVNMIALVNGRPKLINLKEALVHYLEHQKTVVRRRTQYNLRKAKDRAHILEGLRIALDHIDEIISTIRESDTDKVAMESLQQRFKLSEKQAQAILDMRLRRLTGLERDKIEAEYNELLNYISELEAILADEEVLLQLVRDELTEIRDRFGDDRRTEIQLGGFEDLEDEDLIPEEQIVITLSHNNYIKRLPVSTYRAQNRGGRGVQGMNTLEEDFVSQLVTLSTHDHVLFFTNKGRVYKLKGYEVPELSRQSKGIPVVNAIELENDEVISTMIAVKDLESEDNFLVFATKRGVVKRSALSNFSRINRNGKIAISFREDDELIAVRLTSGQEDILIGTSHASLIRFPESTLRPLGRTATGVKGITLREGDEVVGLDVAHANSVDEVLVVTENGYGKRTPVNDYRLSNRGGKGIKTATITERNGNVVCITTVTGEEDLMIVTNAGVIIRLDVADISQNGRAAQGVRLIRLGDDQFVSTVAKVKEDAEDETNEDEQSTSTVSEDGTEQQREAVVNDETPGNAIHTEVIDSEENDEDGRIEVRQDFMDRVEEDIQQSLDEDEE
T1 sequence (P0A0K8 whole entry partner): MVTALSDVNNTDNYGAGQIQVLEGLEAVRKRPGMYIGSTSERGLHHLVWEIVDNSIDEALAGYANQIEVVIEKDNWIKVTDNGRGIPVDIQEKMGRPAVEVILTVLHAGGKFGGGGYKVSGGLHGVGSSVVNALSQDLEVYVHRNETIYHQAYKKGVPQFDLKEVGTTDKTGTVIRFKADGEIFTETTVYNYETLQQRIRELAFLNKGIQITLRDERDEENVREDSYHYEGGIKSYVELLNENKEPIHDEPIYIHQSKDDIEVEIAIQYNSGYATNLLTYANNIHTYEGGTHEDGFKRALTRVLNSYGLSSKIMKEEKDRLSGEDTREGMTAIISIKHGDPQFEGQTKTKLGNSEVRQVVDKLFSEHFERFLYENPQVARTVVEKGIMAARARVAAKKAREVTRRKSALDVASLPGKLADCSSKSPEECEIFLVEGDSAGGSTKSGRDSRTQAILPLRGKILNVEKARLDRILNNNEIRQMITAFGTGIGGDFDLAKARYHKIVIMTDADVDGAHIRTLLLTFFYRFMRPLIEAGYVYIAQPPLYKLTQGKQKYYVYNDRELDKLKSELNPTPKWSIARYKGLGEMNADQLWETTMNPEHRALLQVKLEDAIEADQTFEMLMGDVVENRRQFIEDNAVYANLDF
Experimental: A Gyrase Supercoiling High Throughput Plate assay kit, purchased from Inspiralis (Norwich. UK) was used to determine IC50 values of compounds on S. aureus and E. coli. […] Biotinylated oligonucleotide in wash buffer was immobilized onto the wells, and the excess oligonucleotide was washed off with wash buffer and ultrapure water. […] The reactions were stopped by adding the TF buffer (50 mM NaOAc (pH 4.7), 50 mM NaCl, and 50 mM MgCl2) to allow the triplex formation (biotin-oligonucleotide-plasmid) for additional 30 min. Afterward, the unbound plasmid was washed off using TF buffer, and the solution of Promega Diamond dye in T10 buffer (10 mM Tris-HCl (pH 8.0), 1 mM EDTA) was added. […] IC50 value represents the mean of two to four independent measurements.

S. aureus (ATCC 29213) = assay: MIC broth microdilution, S. aureus ATCC 29213; format: cell-based
Experimental: (§1) Antimicrobial testing was carried out by the broth microdilution method in 96-well plate format following the Clinical and Laboratory Standards Institute (CLSI) guidelines and European Committee on Antimicrobial Susceptibility Testing (EUCAST) recommendations. Bacterial suspension of specific bacterial strain equivalent to 0.5 McFarland turbidity standard was diluted with cation-adjusted Mueller Hinton broth with TES (Thermo Fisher Diagnostic, Landsmeer, The Netherlands), to obtain a final inoculum of 10^5 CFU/mL. Compounds dissolved in DMSO and inoculum were mixed together and incubated for 18–20 h at 35 °C. Suspensions of Mycobacterium sp. were prepared into a tube of Middelbrook 7H9 broth supplemented with 5% OADC (Thermo Scientific, Trek Diagnostic Systems, West Sussex, UK) and incubated for at least 10 days. After incubation the minimal inhibitory concentration (MIC) values were determined by visual inspection as the lowest dilution of compounds showing no turbidity. Tetracycline was used as a positive control on every assay plate.

MRSA = assay: MIC broth microdilution, MRSA; format: cell-based, methicillin-resistant S. aureus; details: Staphylococcus aureus, read-out: MIC MRSA
Experimental: as §1

MRSA (QA-11.7) = assay: MIC broth microdilution, MRSA QA-11.7; format: cell-based, methicillin-resistant S. aureus; details: Staphylococcus aureus, 20 h, read-out: MIC MRSA (QA-11.7)
Experimental: as §1

MRSA (QA-11.4) = assay: MIC broth microdilution, MRSA QA-11.4; format: cell-based, methicillin-resistant S. aureus; details: Staphylococcus aureus, 20 h, read-out: MIC MRSA (QA-11.4)
Experimental: as §1

[1] = system: E. faecalis DRK 057 (ATCC 29212); assay: MIC broth microdilution, E. faecalis; format: cell-based
Experimental: as §1

[2] = system: S. agalactiae RDK 047 (QA-990/02); assay: MIC broth microdilution, S. agalactiae; format: cell-based
Experimental: as §1

E. coli (QA-11.7) = assay: MIC broth microdilution, E. coli QA-11.7; format: cell-based; details: Escherichia coli, 20 h, read-out: MIC E. coli (QA-11.7)
Experimental: as §1

E. coli N43 (CGSC# 5583) = assay: MIC broth microdilution, E. coli N43; format: cell-based; details: Escherichia coli
Experimental: as §1

[3] = system: A. baumannii 8C6 (GES-14); assay: MIC broth microdilution, A. baumannii; format: cell-based
Experimental: as §1

M. smegmatis = assay: MIC, M. smegmatis; format: cell-based, Mycobacterium smegmatis; details: Mycolicibacterium smegmatis; read-out: MIC M. smegmatis
Experimental: as §1

M. avium = assay: MIC, M. avium; format: cell-based
Experimental: as §1

HUVEC = assay: Metabolic activity assessment (cytotoxicity), HUVEC; format: cell-based; details: Homo sapiens, metabolic activity after 72 h treatment
Experimental: Cells of the HepG2 line (ATCC® HB-8065™) and HUVEC (ATCC® CRL-1730™) were cultured in Dulbecco’s Modified Eagle Medium (DMEM; Sigma-Aldrich, St. Louis, MO, USA) supplemented with 10% heat-deactivated FBS (Gibco, Grand Island, NE, USA), 2 mM L-glutamine, 100 U/mL penicillin, 100 μg/mL streptomycin (all from Sigma-Aldrich, St. Louis, MO, USA) in a humidified chamber at 37 °C and 5% CO2. The experiments were carried out on passages 7–9 for both cell lines. The tested compounds were dissolved in DMSO and further diluted in culture medium to a desired final concentration. Cells were seeded into 96-well plates at 8 × 10^4 cells/mL (100 μL/well) and incubated for 24 h to attach onto the wells. Cells were treated with 1 μM and 50 μM of each compound of interest or corresponding vehicle as control. […] The metabolic activity was assessed after 72 h treatment using the CellTiter 96 Aqueous One Solution Cell Proliferation Assay (Promega, Madison, WI, USA), in accordance with the manufacturer’s instructions. The absorbance was measured at 492 nm on an automated microplate reader BioTek Synergy HT (BioTek Instruments, Inc., Winooski, VT, USA). Data are presented as the percentage of metabolic activity of control cells stimulated with vehicle or as IC50 value (mean ± SD) from two independent experiments, each conducted in duplicate or triplicate. IC50 values were calculated by a non-linear regression model using Graph Pad Prism 7 software.

in vitro = details: for Papp at 4 h: PAMPA
Experimental: Prior to the measurements of solubility and permeability isocratic HPLC methods were developed. […] The individual method parameters for each compound are given in the Supplementary Materials Table S1.
A 96-well precoated three-layer PAMPA plates (Corning® Gentest™ Pre-coated PAMPA Plate System, Corning, NY, USA) were used according to the manufacturer’s instructions and as described previously with 300 µL of the donor solutions in the bottom compartment and 200 µL of the acceptor solution (pH 7.4 PBS) in the upper compartment at 37 °C and a 4-h incubation time. The initial and end donor solutions were injected at a 5 µL injection volume. The initial donor solutions were also diluted 100-fold and injected at a 100 µL injection volume to serve as external references for the end acceptor solutions which were injected at the same injection volume. The permeability calculations were made with a manufacturer-provided Excel spreadsheet directly from the measured peak areas accounting for the relevant dilutions and injection volumes.

[4] = read-out: E. coli N43 MIC in molar
[5] = read-out: MIC E. coli N43 (CGSC# 5583)
[6] = Staphylococcus aureus, ATCC29213; S. aureus ATCC 29213; read-out: S. aureus MIC (converted)
[7] = Staphylococcus aureus, ATCC29213; read-out: MIC S. aureus (ATCC 29213)
[8] = Enterococcus faecalis, ATCC29212; read-out: MIC E. faecalis DRK 057 (ATCC 29212)
[9] = Streptococcus agalactiae; read-out: MIC S. agalactiae RDK 047 (QA-990/02)
[10] = multi-resistant isolate (ampicillin, azithromycin, cefotaxime, ertapenem, imipenem and others)
[11] = Acinetobacter baumannii; read-out: MIC A. baumannii 8C6 (GES-14)
[12] = Mycobacterium avium; read-out: MIC M. avium

Row | SMILES | IC50 (S. aureus DNA gyrase) [nM] | MIC (MRSA) [µg/mL] | MIC (MRSA (QA-11.7)) [µg/mL] | MIC (E. coli N43 (CGSC# 5583); [4]) [µM] | MIC (E. coli N43 (CGSC# 5583); [5]) [µg/mL] | MIC (M. smegmatis) [µg/mL] | IC50 (HUVEC) [µM] | Papp at 4 h (in vitro) [×10⁻⁶ cm/s] | Papp at 4 h (in vitro; pH 7.4) [×10⁻⁶ cm/s] | LE DNA Gyrase S. aureus (S. aureus DNA gyrase) | MIC (S. aureus (ATCC 29213); [6]) [µM] | MIC (S. aureus (ATCC 29213); [7]) [µg/mL] | MIC (MRSA (QA-11.4); resistant to cefoxitin) [µg/mL] | MIC [1, 8] [µg/mL] | MIC [2, 9] [µg/mL] | MIC (E. coli (QA-11.7); [10]) [µg/mL] | MIC [3, 11] [µg/mL] | MIC (M. avium; [12]) [µg/mL] | further results
1 | COc1ccc2nccc(CCN3CCC(NCc4c(C)nc5c(C)cccn45)CC3)c2n1 [Compound 6, N-((2,8-Dimethylimidazo[1,2-a]pyridin-3-yl)methyl)-1-(2-(6-methoxy-1,5-naphthyridin-4-yl)ethyl)piperidin-4-amine] | > 100000 | > 128 | > 128 | 288 | 128 | 64 (≈ 144 µM) | > 50 | > 2.7 | 5.6 | – | – | – | – | – | – | – | – | – | MIC (S. aureus (ATCC 29213); Staphylococcus aureus, ATCC29213, read-out: MIC S. aureus (ATCC 29213)): > 128 µg/mL; MIC (S. aureus (ATCC 29213); Staphylococcus aureus, ATCC29213, read-out: S. aureus MIC in molar): 288 µM; MIC (MRSA (QA-11.4)): > 128 µg/mL; MIC ([1]; Enterococcus faecalis, ATCC29212, read-out: MIC E. faecalis DRK 057 (ATCC 29212)): > 128 µg/mL; MIC ([2]; Streptococcus agalactiae, read-out: MIC S. agalactiae RDK 047 (QA-990/02)): 128 µg/mL (≈ 288 µM); MIC (E. coli (QA-11.7)): > 128 µg/mL; MIC ([3]; Acinetobacter baumannii, read-out: MIC A. baumannii 8C6 (GES-14)): > 128 µg/mL; MIC (M. avium; Mycobacterium avium, read-out: MIC M. avium): > 128 µg/mL
2 | COc1ccc2nccc(CCN3CCC(NCc4ccc(CO)cc4)CC3)c2n1 [Compound 16] | 4390 ± 550 | 4 (≈ 9.84 µM) | 4 (≈ 9.84 µM) | 39.4 | 16 | 32 (≈ 78.7 µM) | – | – | 1.5 | 0.24 | 9.84 | 4 | 8 (≈ 19.7 µM) | 8 (≈ 19.7 µM) | 8 (≈ 19.7 µM) | 32 (≈ 78.7 µM) | 128 (≈ 315 µM) | > 128 | IC50 (HUVEC; 72 h): > 50 µM; PAMPA permeability classification [low/high] (in vitro; relative to reference drugs): int erm ediat e
3 | COc1ccc2nccc(CCN3CCC(NCc4cnn(C(C)C)c4)CC3)c2n1 [Compound 9, N-((1-Isopropyl-1H-pyrazol-4-yl)methyl)-1-(2-(6-methoxy-1,5-naphthyridin-4-yl)ethyl)piperidin-4-amine] | 160 ± 10 | 0.25 (≈ 0.612 µM) | 1 (≈ 2.45 µM) | 0.61 | 0.25 | 0.25 (≈ 0.612 µM) | > 50 | > 2.7 | 3.3 | 0.31 | 0.31 | 0.125 | 1 (≈ 2.45 µM) | 1 (≈ 2.45 µM) | 0.5 (≈ 1.22 µM) | 2 (≈ 4.9 µM) | 2 (≈ 4.9 µM) | 128 (≈ 313 µM) | –
4 | COc1ccc2nccc(CCN3CCC(NCc4nc5ccccc5n4C)CC3)c2n1 [Compound 3, 1-(2-(6-Methoxy-1,5-naphthyridin-4-yl)ethyl)-N-((1-methyl-1H-benzo[d]imidazol-2-yl)methyl)piperidin-4-amine] | 1600 ± 350 | 2 (≈ 4.65 µM) | 8 (≈ 18.6 µM) | 37.2 | 16 | 4 (≈ 9.29 µM) | > 50 | > 2.7 | 5.4 | 0.25 | 2.32 | 1 | 4 (≈ 9.29 µM) | 4 (≈ 9.29 µM) | < 1 | 64 (≈ 149 µM) | > 128 | > 128 | –
5 | COc1ccc2nccc(CCN3CCC(NCc4ccc(C(F)(F)F)nc4)CC3)c2n1 [Compound 21, 1-(2-(6-Methoxy-1,5-naphthyridin-4-yl)ethyl)-N-((6-(trifluoromethyl)pyridin-3-yl)methyl)piperidin-4-amine] | 160 ± 20 | 0.5 (≈ 1.12 µM) | 1 (≈ 2.24 µM) | 2.25 | 1 | 0.25 (≈ 0.561 µM) | > 50 | > 2.7 | 8.3 | 0.29 | 0.56 | 0.25 | 1 (≈ 2.24 µM) | 2 (≈ 4.49 µM) | 4 (≈ 8.98 µM) | 2 (≈ 4.49 µM) | 16 (≈ 35.9 µM) | 4 (≈ 8.98 µM) | –
6 | C=CCn1cc(CNC2CCN(CCc3ccnc4ccc(OC)nc34)CC2)cn1 [Compound 10, N-((1-Allyl-1H-pyrazol-4-yl)methyl)-1-(2-(6-methoxy-1,5-naphthyridin-4-yl)ethyl)piperidin-4-amine] | 1100 ± 170 | 2 (≈ 4.92 µM) | 4 (≈ 9.84 µM) | 2.46 | 1 | ≤ 1 | > 50 | > 2.7 | 4.1 | 0.27 | 4.92 | 2 | 4 (≈ 9.84 µM) | 8 (≈ 19.7 µM) | 4 (≈ 9.84 µM) | 4 (≈ 9.84 µM) | 32 (≈ 78.7 µM) | > 128 | –
7 | COc1ccc2nccc(CCN3CCC(NCc4cnn(-c5ccccc5)n4)CC3)c2n1 [Compound 8, 1-(2-(6-Methoxy-1,5-naphthyridin-4-yl)ethyl)-N-((2-phenyl-2H-1,2,3-triazol-4-yl)methyl)piperidin-4-amine] | 240 ± 40 | 0.5 (≈ 1.13 µM) | 0.5 (≈ 1.13 µM) | 2.26 | 1 | 0.5 (≈ 1.13 µM) | 39.4 ± 5.47 | > 2.7 | 10.6 | 0.27 | 1.13 | 0.5 | 1 (≈ 2.25 µM) | 1 (≈ 2.25 µM) | 0.5 (≈ 1.13 µM) | 4 (≈ 9.02 µM) | 32 (≈ 72.1 µM) | 32 (≈ 72.1 µM) | –
